Source: patent publication US5614548A, “Quaternary amine containing ether or ester lipid derivatives and therapeutic compositions” (priority 1994, dated 1997)
Like-named read-outs stand apart in the source and are kept apart here.

What was measured:
[1] = tested on: HL60 human leukemia cell line; experiment: HL60 cell growth inhibition (trypan blue, 48 h); assay type: cell-based; conditions: Homo sapiens, HL-60, 48 h, HL60, 48 hours; read-out: ID50 (the source's name)
Protocol: A number of the compounds disclosed herein have been tested against the HL60 human leukemia cell line to assess their cytotoxic potential. These analogs were investigated in parallel with ET-18-OMe which was used as the reference compound. The methodologies used in this investigation were the same as described in A. Noseda, M. Berens, C. Piantadosi, and E. J. Modest, Lipids 22, 878-883, 1987. In brief, HL60 cells at a concentration of […] were incubated in wells with one milliliter medium with the experimental drug in parallel with the same concentration of cells with ET-18-OMe (standard) or EtOH (control). After 48 hours of incubation the cells were counted using the trypan blue dye exclusion technique to determine the effect of the drug on cell growth. The experimental drug and ET-18-OMe were tested at the same concentrations, e.g., 10, 5, 2.5 and 1.25 μM.

[2] = tested on: Protein Kinase C; experiment: Protein Kinase C activity (32P incorporation into histone); assay type: biochemical, human (HL-60 cells)
Protocol: PKC was prepared and assayed as described previously. See Daniel, L. W. et al., Biochem. Biophys. Res. Comm. 151, 291 (1988). In brief, HL-60 cells were grown in 75 milliliter flasks, harvested and washed with ice-cold normal saline. After centrifugation (600×g, 5 minutes, 4° Centigrade), the cell pellet was resuspended (20 mM Tris-HCl, pH 7.5, 2 mM EDTA, 10 mM EGTA, 50 mM 2-mercaptoethanol, 2 mM phenylmethylsulfonyl fluoride) and sonicated for 20 s with a stepped microprobe sonciator. Unbroken cells were removed by centrifugation as above and the supernatant centrifuged (65,000×g, 90 minutes, 4° Centigrade). The supernatant from this step (cytosol) was then fractionated on a 1×8 cm DEAE-Sephacel column after addition to sucrose to a final concentration of 10%. After equilibrating the column (20 mM Tris, pH 7.5, 0.2 mM EDTA, 0.2 mM EGTA, 50 mM 2-mercaptoethanol, 10% sucrose), the sample was loaded and unbound material was washed through with 40 milliliters of the equilibrating buffer. The PKC was eluted by a gradient from 0-0.5M NaCl in the buffer described above. Fractions of 1 milliliter were collected at 25 milliliters per hour and 0.05 milliliter aliquots assayed for PKC activity as described below. The fractions with the highest activity were pooled and used in further experiments.
The assays were done at pH 7.5 in a total volume of 0.25 milliliter and all tubes contained 25 mM Tris, 10 mM MgCl2, 40 μg per milliliter histone, 10 μM ATP (including 1 μCi of [gamma-^32 P]-ATP), 0.1 mM CaCl2, 20 μg per milliliter phosphatidylserine, 0.05 milliliter of the PKC preparation and 2.5 μM of oleoylacetylglycerol (OAG). Enzymatic activity was determined as the incorporation of ^32 P from [gamma-^32 P]-ATP) into histone in the presence of Ca^2+, phosphatidylserine, and OAG. Reactions were initiated by the addition of the enzyme preparation and halted after 20 minutes at 30° Centigrade by the addition of 0.05 milliliters of bovine serum albumin (10 milligrams per milliliter) and 1 milliliter 25% ice-cold trichloroacetic acid. The tubes were kept on ice and then filtered in a millipore vacuum box using Millipore® HA filters and washed with 25% trichloroacetic acid. The radioactivity bound to the filters was determined by scintillation spectrometry in 5 milliliters Budget Solve®. […] The analog to be tested was dissolved in ethanol, and added directly into the reaction mixture before the addition of PKC. As a control, 0.1% ethanol was included in the samples with the enzyme but with no inhibitor.

[3] = tested on: KB cells; experiment: Cytostatic activity on KB cells; assay type: cell-based; conditions: Homo sapiens, read-out: IC50 KB
Protocol: (§1) All cells were grown in Eagle's minimum essential medium supplemented with 10% fetal bovine serum with the exception of HL-60 and K562-4 cells which were grown in RPMI 1640 medium supplemented with 10% fetal bovine serum. The KB and MH1 C1 cells, from a human nasopharyngeal carcinoma and rat hepatoma, respectively, were from American Type Culture Collection. The ChaGo cells, a human lung carcinoma, was generously provided by Dr. A. H. Tashjian. The human promyeloblastic leukemia cells, K562-4 were kindly supplied by Dr. Bismarck Lozzio. HL-60 cells, a human promyelocytic leukemia, and P388 cells, a mouse leukemia, were obtained from Dr. Y.-C. Cheng. The 77 cells were put into culture by us by excising the 7777, Morris hepatoma from a rat graciously supplied by the late Dr. H. P. Morris.
(§2) Cells were transferred or removed from monolayers for counting after a one or two minute incubation with 0.02% sodium ethylenediamine tetraacetate in phosphate-buffered saline to dislodge the cells. Flasks were seeded at a density of 1×10^3 cells per cm^2 or 2×10^4 per milliliter for suspension cultures. The HL-60 and K562-4 suspension cultures were used about 24 hours after seeding. The compounds to be tested were diluted to various concentrations and added to the monolayer cultures. All of the test compounds were dissolved in 10% dimethyl sulfoxide (DMSO) at concentrations that would give a final DMSO concentration of 0.1%. Control flasks contained 0.1% DMSO. Control cell replication was followed until approximately three doublings had occurred, and then all of the treated cells were counted.
(§3) The KB cells represented cells with low alkyl cleavage activity (less than the detectable level of 0.1-0.2 units per milligram protein by our assay procedure) and the 77 cells represented cells similar to normal cells with relatively high alkyl cleavage activity (1.6 units per milligram of protein). Our value for the cleavage activity of cultured 77 cells agrees well with the value of 1.4 units per milligram of protein reported by Soodsma et al, Cancer Res. 30, 309 (1970), for freshly excised 7777 Morris hepatoma tissue. In further confirmation of our assay procedure, we obtained a value of 12.6±4.1 units per milligram of protein in excised rat liver compared to 7.3 units per milligram of protein in rat liver measured by Soodsma et al.

[4] = tested on: 77 cells; experiment: Cytostatic activity on 77 cells; assay type: cell-based, rat; conditions: for IC50: 77 cells, after controls doubled three times; for 77/KB: ratio of IC50 values ± standard error of the quotient
Protocol: as §1, §2, §3

[5] = KB cells, after controls doubled three times

Structure (SMILES) | Percent Protein Kinase C Activity Retained ([2]; 1.25 μM) | Percent Protein Kinase C Activity Retained ([2]; 2.5 μM) | Percent Protein Kinase C Activity Retained ([2]; 5.0 μM) | Percent Protein Kinase C Activity Retained ([2]; 10.0 μM) | Percent Protein Kinase C Activity Retained ([2]; 20.0 μM) | Percent Protein Kinase C Activity Retained ([2]; 40.0 μM) | IC50 [3, 5] | also measured
CCCCCCCCCCCCCCCCCCSCC(C[N+](C)(C)CCCO)OC (racemic) [CJM 44, (±)-3-octadecylthio-2-methoxy-N,N-dimethyl-N-gamma-hydroxypropyl-1-propyl ammonium bromide] |  |  |  |  |  |  |  | IC50 [1]: 3.4 µM
CCCCCCCCCCCCCCCCCC1OCC(C[N+](C)(C)CCCO)O1 (racemic) [CJM 60, (±)-N-(2-heptadecyl-1,3-dioxolan-4-yl)methyl-N,N-dimethyl-gamma-hydroxypropyl ammonium bromide] |  |  |  |  |  |  |  | IC50 [1]: 6.5 µM
CCCCCCCCCCCCCCCCOCC(C[N+]1(C)CCC(O)CC1)OCC (racemic) [CJM PIPER, (±)-1-methyl-1-(3-hexadecyloxy-2-ethoxypropyl)-4-hydroxy piperidinium iodide] |  |  |  |  |  |  |  | IC50 [1]: 2.8 µM
CCCCCCCCCCCCCCCCSCC(C[N+](C)(C)CCO)OC (stereo not shown) [A] | 97% | 90% | 73% | 60% | 54% | 42% |  | 
CCCCCCCCCCCCCCCCSCC(C[N+](C)(C)CCCO)OCC (stereo not shown) [C] | 78% | 64% | 67% | 60% | 59% | 37% |  | 
CCCCCCCCCCCCCCCCSCC(C[N+](C)(C)C)OC (stereo not shown) [D] | 112% | 88% | 81% | 74% | 54% | 29% |  | 
COC(COc1cccc2ccccc12)C[N+](C)(C)CCO (stereo not shown) [E] | 99% | 99% | 83% | 89% | 87% | 90% |  | 
CC1(C)OCC(C[N+](C)(C)CCO)O1 (stereo not shown) [F] | 88% | 84% | 87% | 88% | 96% | 87% |  | 
CCCCCCCCCCCCCCCCCC1OCC(C[N+](C)(C)CCCO)O1 (stereo not shown) [G] | 44% | 43% | 26% | 12% | 9% | 9% |  | 
CCCCCCCCCCCCCCCCOCC(C[N+](C)(C)CCO)OC (stereo not shown) [H] | 107% | 95% | 87% | 64% | 42% | 29% |  | 
CCCCCCCCCCCCCCCCCC(=O)OCC[N+](C)(C)CCO [II, 2-octadecanoyloxy-N,N-dimethyl-N-β-hydroxyethyl-1-ethyl ammonium iodide] |  |  |  |  |  |  | 16 µM | 
CCCCCCCCCCCCOCC[N+](C)(C)CCO.[I-] [III, 2-dodecyloxy-N,N-dimethyl-N-β-hydroxyethyl-1-ethyl ammonium iodide] |  |  |  |  |  |  | 0.78 ± 0.03 µM | IC50 [4]: 4.73 ± 0.87 µM; 77/KB [4]: 6.1 ± 1.15
CCCCCCCCCCCCCCOCC[N+](C)(C)CCO.[I-] [IV, 2-tetradecyloxy-N,N-dimethyl-N-β-hydroxyethyl-1-ethyl ammonium iodide] |  |  |  |  |  |  | 0.32 ± 0.12 µM | IC50 [4]: 1.53 ± 0.23 µM; 77/KB [4]: 4.8 ± 1.94
C[N+](C)(CCO)CCOc1ccccc1 [IX, 2-Phenoxy-N,N-dimethyl-N-β-hydroxyethyl-1-ethyl ammonium iodide] |  |  |  |  |  |  |  | IC50 ([3]; KB): > 100 µM
CCCCCCCCCCCCCCCCOCCC[N+](C)(C)C [KLM 69, 3-hexadecyloxy-N,N,N-trimethyl-1-propyl ammonium bromide] |  |  |  |  |  |  |  | IC50 [1]: 1.6 µM
CCCCCCCCCCCCCCCCOCCC[n+]1ccccc1 [KLM 70, 1-(3-hexadecyloxypropyl) pyridium bromide] |  |  |  |  |  |  |  | IC50 [1]: 0.8 µM
CCCCCCCCCCCCCCCCOCC[N+](C)(C)CCO.[I-] [V, 2-hexadecyloxy-N,N-dimethyl-N-β-hydroxyethyl-1-ethyl ammonium iodide] |  |  |  |  |  |  | 0.33 ± 0.12 µM | IC50 [4]: 1.42 ± 0.5 µM; 77/KB [4]: 4.3 ± 2.15
CCCCCCCCCCCCCCCCOCC[N+](C)(C)CCCCO.[I-] [VII, 2-hexadecyloxy-N,N-dimethyl-N-delta-hydroxybutyl-1-ethyl ammonium iodide] |  |  |  |  |  |  | 0.44 ± 0.11 µM | IC50 [4]: 2.27 ± 0.93 µM; 77/KB [4]: 5.2 ± 2.50
CCCCCCCCCCCCCCCCOCC(C[N+](C)(C)CCO)OC (stereo not shown) [XII] |  |  |  |  |  |  | 0.26 ± 0.05 µM | IC50 [4]: 1.27 ± 0.41 µM; 77/KB [4]: 4.9 ± 1.84
